Measurements reported in article PMC7822874, “Chemoprotective antimalarials identified through quantitative high-throughput screening of Plasmodium blood and liver stage parasites” (Scientific Reports, 2021).
Several values for one entry are separate records, joined by “and”; a condition that tells them apart may be missing. Equal values may be shown once.

How the values were obtained:
[1] = in vitro; conditions: human, n = 1
[2] = test system: P. falciparum Dd2 Cytb G131S; experiment: SYBR Green ABS proliferation assay, NCGC00374598 selected clone C11; type: cell-based, Plasmodium falciparum; conditions: Plasmodium falciparum, DD2, […]; averaged from three independent replicates; top concentration 29 µM; read-out: Average AC50 (Log[M]), NCGC00374598 clone C11 (Cytb G131S) (converted)
Procedure, shortened: (§1)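 Proliferation of cytb-mutant Dd2 clones was measured by SYBR Green-I fluorescence at 72 h, normalized to controls.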

[3] = test system: P. falciparum Dd2 Cytb F123L; experiment: SYBR Green ABS proliferation assay, NCGC00473217 selected clone G08; type: cell-based, Plasmodium falciparum; conditions: Plasmodium falciparum, DD2, […]; averaged from three independent replicates; top concentration 29 µM; read-out: Average AC50 (Log[M]), NCGC00473217 clone G08 (Cytb F123L) (converted)
Procedure, shortened: as §1

[4] = test system: P. falciparum Dd2 Cytb A122D; experiment: SYBR Green ABS proliferation assay, NCGC00473217 selected clone F12; type: cell-based, Plasmodium falciparum; conditions: Plasmodium falciparum, DD2, […]; averaged from three independent replicates; top concentration 29 µM; read-out: Average AC50 (Log[M]), NCGC00473217 clone F12 (Cytb A122D) (converted)
Procedure, shortened: as §1

[5] = test system: P. falciparum Dd2 Cytb V259L; experiment: SYBR Green ABS proliferation assay, NCGC00473217 selected clone F06; type: cell-based, Plasmodium falciparum; conditions: Plasmodium falciparum, DD2, […]; averaged from three independent replicates; top concentration 29 µM; read-out: Average AC50 (Log[M]), NCGC00473217 clone F06 (Cytb V259L) (converted)
Procedure, shortened: as §1

[6] = test system: T1, Plasmodium falciparum Dd2-attB-ScDHODH (transgenic line expressing yeast DHODH), asexual blood stages; experiment: organism not typed; set-up: replicate k of 3 (each line is one of three independent assays; the three lines of one compound and parasite line follow each other); conditions: 72 h, n = 1
T1 construct: Dd2-attB-ScDHODH, the transgenic line that expresses yeast DHODH
Procedure, shortened: (§2)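 The transgenic line overexpresses fumarate-dependent yeast DHODH, bypassing parasite mETC and ubiquinone-dependent parasite DHODH. A subset of compounds was run in three independent assays on both lines, and line differences were tested by two-sided Student's t-test.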

[7] = test system: T2, Plasmodium falciparum Dd2-attB (parental line), asexual blood stages; experiment: microbe, parasite or virus in culture; set-up: replicate k of 3 (each line is one of three independent assays; the three lines of one compound and parasite line follow each other); conditions: 72 h; n = 1
T2 construct: Dd2-attB, the isogenic parental line
Procedure, shortened: as §2

[8] = test system: P. falciparum Dd2 (clone B2) asexual blood stage parasites; experiment: P. falciparum Dd2 asexual blood stage SYBR Green-I 72 h proliferation assay (qHTS); type: cell-based, Plasmodium falciparum; conditions: Plasmodium falciparum, DD2, Dd2 parental; Hill fit, averaged from three independent replicates; top concentration 29 µM; read-out: Average AC50 (Log[M]), Dd2 (converted)

Row | SMILES | CC50 at 48 h ([1]; HepG2 cells) | also measured
1 | CCC(C)NC(=O)N1CC(Oc2ccc(-c3noc(C4CCOCC4)n3)cc2)C1 (centres unmarked) [NCGC00458059-01] | – | CC50 at 48 h ([1]; hepg2): 12.2 µM
2 | N#Cc1c(Cl)nsc1NC(=O)c1ccccc1 [MLS000696348-01] | 13.7 µM | –
3 | O=C(CCCCCCC(=O)Nc1ccccc1)NO [NCGC00168085-01] | 19.3 µM | –
4 | Cc1nn2c(NCc3ccccn3)cc(C(C)C)nc2c1-c1ccccc1 [MLS000762881-01] | 12.2 µM | –
5 | Cc1cc(Cl)ccc1-c1ccc(CNC2CN(C(=O)OC(C)(C)C)C2)cc1 [NCGC00374248-01] | 34.3 µM | –
6 | c1csc(-c2cn3ccc4ccccc4c3n2)c1 [MLS000711806-01] | 15.3 µM | –
7 | C=C1C(=O)O[C@@H]2C[C@@H](C)[C@@H]3C=CC(=O)[C@@]3(C)[C@@H](OC(=O)CC(=O)O[C@H]3[C@@H]4C(=C)C(=O)O[C@@H]4C[C@@H](C)[C@@H]4C=CC(=O)[C@]43C)[C@H]12 [MLS000728515-01] | – | CC50 at 48 h ([1]; hepg2): 10.9 µM
8 | COc1cc(C(=O)N/N=C(/c2ccccc2)c2ccccn2)cc(OC)c1OC [MLS000390992-01] | 10.9 µM | –
9 | CCCCC(=O)NC(c1cccs1)c1cc(Cl)c2cccnc2c1O (centres unmarked) [MLS000714525-01] | 13.7 µM | –
10 | CC(C)c1cccc(NC(=O)c2ccc(CN3C(=O)NC4(CCOCC4)C3=O)cc2)c1 [NCGC00454607-01] | 24.3 µM | –
11 | Cc1cc(C)n(CCC(=O)N2CC(Oc3ccc(-c4nc(-c5ccccc5)no4)cc3)C2)n1 [NCGC00441169-01] | 10.9 µM | –
12 | CCNc1nc2c(c(=O)n(C)c(=O)n2C)n1Cc1ccc(F)cc1 [NCGC00142036-01] | 21.7 µM | –
13 | CC(C)c1cc(C(=O)NC2CCN(c3ncccc3C#N)CC2)n(C)n1 [NCGC00431169-01] | 19.3 µM | –
14 | C=C1C(=O)OC2CC(C)C3C=CC(=O)C3(C)C(O)C12 (centres unmarked) [MLS002701927-01] | – | CC50 at 48 h ([1]; hepg2): 15.3 µM
15 | O=C(c1ccc2[nH]ccc2c1)N1CCC2(CC1)NC(c1ccc(Br)cc1)=NO2 [NCGC00446987-01] | 24.3 µM | –
16 | CC(=O)c1cccc(N[S+](=O)([O-])c2cc(-c3cnc(C4CC4)o3)ccc2C)c1 [NCGC00131168-01] | 30.6 µM | –
17 | CCCOc1ccc(C(=O)Nc2ccc(-c3cc4ccccc4oc3=O)c(C)c2)cc1 [NCGC00098245-01] | 24.3 µM | –
18 | CCCN1C(CC(C)C)=N[S+](=O)([O-])c2cc(NC(=O)c3ccco3)ccc21 [NCGC00473219-02] | – | AC50 [2]: 3.17e-06 M; AC50 [3]: 3.17e-06 M; AC50 [4]: 3.56e-06 M; AC50 [5]: 5.22e-06 M; Individual replicates / Log AC50 (M) [6]: -5.7486 Log AC50 (M) and -5.5986 Log AC50 (M) and -5.8986 Log AC50 (M); Individual replicates / Log AC50 (M) [7]: -6.2986 Log AC50 (M) and -5.9986 Log AC50 (M) and -6.0986 Log AC50 (M); AC50 [8]: 3.17e-06 M
19 | Cc1cc(NCc2ccccn2)n2nc(C)c(-c3ccc(Cl)cc3)c2n1 [MLS000559839-01] | 9.68 µM | –
20 | CCOC(=O)C1=C(c2ccccc2)N=C(N)NC1c1ccc(OCc2ccc(Cl)cc2)c(OC)c1 (centres unmarked) [MLS000771452-01] | 34.3 µM | –
21 | CC1=CC(=CNNC(=O)c2n[nH]cc2Br)C(=O)C=C1 [MLS000555044-01] | 19.3 µM | –
22 | COc1ccc(CCNc2nc3c(c(=O)n(C)c(=O)n3C)n2Cc2ccc(F)cc2)cc1OC [NCGC00102121-01] | 13.7 µM | –
23 | Oc1ccccc1C(Nc1nccs1)c1ccc2cccnc2c1O (centres unmarked) [MLS000759877-01] | 19.3 µM | –
24 | O=C(Cc1c[nH]c2ccccc12)N1CCc2c([nH]c(-c3ccc(F)cc3)nc2=O)C1 [NCGC00439989-01] | 0.00432 µM | –
25 | CC(=O)NC(c1ccccc1)c1cc(Cl)c2cccnc2c1O (centres unmarked) [MLS001210949-01] | 12.2 µM | –
26 | COc1cnc(-c2ccccn2)nc1Sc1ccccc1 [MLS000692209-01] | 24.3 µM | –
27 | CCc1ccc(NC(=O)N2CC(C(=O)N(C)C)C3(CCOCC3)C2)cc1 (centres unmarked) [NCGC00471776-01] | 0.00769 µM | –
28 | COc1ccc(-c2nc(CC3CCN(C(=O)c4n[nH]c(=O)c5ccccc45)C3)no2)cc1 (centres unmarked) [NCGC00443252-01] | 19.3 µM | –
29 | CCn1c(C)nc2cc(-c3nc4n(n3)Cc3ccccc3-4)ccc21 [MLS000054270-01] | 12.2 µM | –
